Reference: ChEMBL document CHEMBL3286215, “Preparation, anticholinesterase activity and molecular docking of new lupane derivatives” (Bioorg Med Chem, 2014)
Active and inactive are the calls of the source. No cut-off for these calls is given here.

Assays:
Acetylcholinesterase [1] = target: T1, Acetylcholinesterase (Torpedo californica, UniProt P04058)
Description: Inhibition of Pacific electric ray AChE using acetylthiocholine iodide as substrate after 60 mins by Ellman's method

[2] = target: Cholinesterase (Equus caballus) (UniProt P81908); assay: Inhibition of BChE in horse serum using butyrylthiocholine iodide as substrate at 200 uM after 120 mins by Ellman's method relative to control
Sequence of Cholinesterase (Equus caballus) (P81908 whole entry): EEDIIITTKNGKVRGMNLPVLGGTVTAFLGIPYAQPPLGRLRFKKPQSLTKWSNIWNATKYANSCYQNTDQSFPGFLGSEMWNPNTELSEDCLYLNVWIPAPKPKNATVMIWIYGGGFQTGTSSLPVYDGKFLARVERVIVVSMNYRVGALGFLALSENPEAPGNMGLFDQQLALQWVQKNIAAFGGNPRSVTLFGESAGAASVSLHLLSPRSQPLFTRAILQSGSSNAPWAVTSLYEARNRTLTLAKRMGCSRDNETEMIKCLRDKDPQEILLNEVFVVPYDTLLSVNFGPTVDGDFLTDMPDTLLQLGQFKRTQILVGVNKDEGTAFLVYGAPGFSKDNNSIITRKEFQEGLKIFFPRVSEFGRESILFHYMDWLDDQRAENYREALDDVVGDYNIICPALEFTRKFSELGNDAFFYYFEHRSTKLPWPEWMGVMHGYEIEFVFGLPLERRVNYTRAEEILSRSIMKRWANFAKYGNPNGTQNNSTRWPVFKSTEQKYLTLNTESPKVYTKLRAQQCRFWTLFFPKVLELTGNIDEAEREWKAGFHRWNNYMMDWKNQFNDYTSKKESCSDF

[3] = target: Acetylcholinesterase (Torpedo californica) (UniProt P04058); assay: Inhibition of Pacific electric ray AChE using acetylthiocholine iodide as substrate at 200 uM after 60 mins by Ellman's method relative to control; conditions: Tetronarce californica
Sequence of Acetylcholinesterase (Torpedo californica) (P04058 22-564 limits assumed): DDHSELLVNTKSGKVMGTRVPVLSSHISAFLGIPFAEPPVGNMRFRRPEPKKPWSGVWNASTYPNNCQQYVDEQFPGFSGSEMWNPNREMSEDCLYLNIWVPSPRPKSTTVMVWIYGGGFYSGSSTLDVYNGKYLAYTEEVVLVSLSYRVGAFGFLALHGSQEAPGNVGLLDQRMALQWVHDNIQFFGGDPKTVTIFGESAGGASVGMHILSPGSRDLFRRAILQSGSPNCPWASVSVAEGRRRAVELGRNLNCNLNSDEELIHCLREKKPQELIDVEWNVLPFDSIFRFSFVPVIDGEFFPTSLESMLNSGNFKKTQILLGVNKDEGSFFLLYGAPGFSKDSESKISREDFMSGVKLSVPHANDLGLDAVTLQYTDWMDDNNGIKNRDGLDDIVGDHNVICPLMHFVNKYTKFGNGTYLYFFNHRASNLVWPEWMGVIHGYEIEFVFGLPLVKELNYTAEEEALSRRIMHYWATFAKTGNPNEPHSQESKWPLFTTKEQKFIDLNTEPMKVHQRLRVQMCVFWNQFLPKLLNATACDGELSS

[4] = Selectivity index, ratio of IC50 for Pacific electric ray AChE to IC50 for BChE in horse serum
Cholinesterase = Cholinesterase (Equus caballus, UniProt P81908)
Sequence of Cholinesterase (P81908 whole entry): as the sequence (P81908 whole entry) above
Description: Inhibition of BChE in horse serum using butyrylthiocholine iodide as substrate after 120 mins by Ellman's method

Acetylcholinesterase [5] = target: T1, Acetylcholinesterase; assay: Uncompetitive inhibition of Pacific electric ray AChE using acetylthiocholine as substrate by Lineweaver-Burk plot analysis; design: species or system Tetronarce californica

T1 sequence (P04058 whole entry): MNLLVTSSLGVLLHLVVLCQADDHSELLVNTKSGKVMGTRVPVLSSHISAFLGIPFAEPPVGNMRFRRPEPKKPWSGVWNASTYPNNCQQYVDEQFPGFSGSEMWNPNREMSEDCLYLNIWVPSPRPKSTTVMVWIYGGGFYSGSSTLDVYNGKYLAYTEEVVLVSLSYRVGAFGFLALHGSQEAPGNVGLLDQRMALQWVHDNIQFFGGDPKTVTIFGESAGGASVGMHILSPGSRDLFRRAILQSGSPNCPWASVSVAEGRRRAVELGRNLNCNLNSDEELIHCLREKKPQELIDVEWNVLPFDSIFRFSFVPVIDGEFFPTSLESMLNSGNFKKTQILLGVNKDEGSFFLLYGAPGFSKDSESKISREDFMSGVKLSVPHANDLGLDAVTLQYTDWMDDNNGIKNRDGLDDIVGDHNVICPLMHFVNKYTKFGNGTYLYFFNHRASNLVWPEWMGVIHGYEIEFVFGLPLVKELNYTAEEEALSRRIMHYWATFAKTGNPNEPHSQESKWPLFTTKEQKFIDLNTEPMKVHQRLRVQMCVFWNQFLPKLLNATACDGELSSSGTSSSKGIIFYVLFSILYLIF

Row | Compound | IC50 (Acetylcholinesterase [1]) [µM] | inhibition [2] [%] | inhibition [3] | Ratio IC50 [4] | IC50 (Cholinesterase) [µM] | Ki (Acetylcholinesterase [5]) [µM]
1 | CC(C)[C@@H]1CC[C@@]2(C)[C@H]1[C@H]1CC[C@@H]3[C@@]4(C)CC[C@H](O)C(C)(C)[C@@H]4CC[C@@]3(C)[C@]1(C)C[C@@H]2O | > 200 | 14.3 | 24.3% | – | – | –
2 | C=C(CO)[C@@H]1CC[C@@]2(C)[C@H]1[C@H]1CC[C@@H]3[C@@]4(C)CC[C@H](OS(=O)(=O)O)C(C)(C)[C@@H]4CC[C@@]3(C)[C@]1(C)C[C@@H]2OS(=O)(=O)O | > 200 | 56.8 | 10.8% | > 1.7 | 188 | –
3 | C=C(C)[C@@H]1CC[C@@]2(C)[C@H]1[C@H]1CC[C@@H]3[C@@]4(C)CC[C@H](OS(=O)(=O)O)C(C)(C)[C@@H]4CC[C@@]3(C)[C@]1(C)C[C@@H]2OS(=O)(=O)O | 190 | 78.5 | 71% | 2.95 | 64.3 | –
4 | C=C(C=O)[C@@H]1CC[C@@]2(C)[C@H]1[C@H]1CC[C@@H]3[C@@]4(C)CC[C@H](OC(C)=O)C(C)(C)[C@@H]4CC[C@@]3(C)[C@]1(C)C[C@@H]2OC(C)=O | – | 45.8 | 6.8% | – | > 200 | –
5 | C=C(C)[C@@H]1CC[C@@]2(C)[C@H]1[C@H]1CC[C@@H]3[C@@]4(C)CC[C@H](OC(C)=O)C(C)(C)[C@@H]4CC[C@@]3(C)[C@]1(C)C[C@@H]2O | – | 46.2 | 1.9% | – | > 200 | –
6 | CC1(C)[C@@H](O)CC[C@]2(C)[C@H]3CC[C@@H]4[C@H]5[C@H]([C@@]6(C)CO6)CC[C@]5(C)[C@@H](O)C[C@@]4(C)[C@]3(C)CC[C@@H]12 | > 200 | 19.4 | 24.3% | – | – | –
7 | C=C(C)[C@@H]1CC[C@]2(C)C(=O)C[C@]3(C)[C@H](CC[C@@H]4[C@@]5(C)CCC(=O)C(C)(C)[C@@H]5CC[C@]43C)[C@@H]12 | – | 33.4 | 6.4% | – | – | –
8 | C=C(COS(=O)(=O)O)[C@@H]1CC[C@@]2(C)[C@H]1[C@H]1CC[C@@H]3[C@@]4(C)CC[C@H](OS(=O)(=O)O)C(C)(C)[C@@H]4CC[C@@]3(C)[C@]1(C)C[C@@H]2OS(=O)(=O)O | > 200 | 50.2 | 12.9% | – | > 200 | –
9 | C=C(C)[C@@H]1CC[C@@]2(C)[C@H]1[C@H]1CC[C@@H]3[C@@]4(C)CC[C@H](O)C(C)(C)[C@@H]4CC[C@@]3(C)[C@]1(C)C[C@@H]2OC(C)=O | – | 51.2 | 5.6% | – | > 200 | –
10 | C=CCCC(=O)O[C@H]1CC[C@]2(C)[C@H]3CC[C@@H]4[C@H]5[C@H](C(=C)C)CC[C@]5(C)[C@@H](OC(=O)CCC=C)C[C@@]4(C)[C@]3(C)CC[C@H]2C1(C)C | – | 29.3 | 6.4% | – | – | –
11 | C=C(CO)[C@@H]1CC[C@@]2(C)[C@H]1[C@H]1CC[C@@H]3[C@@]4(C)CC[C@H](O)C(C)(C)[C@@H]4CC[C@@]3(C)[C@]1(C)C[C@@H]2O | > 200 | 32 | 40.4% | – | – | –
12 | CC(C)[C@@H]1CC[C@@]2(C)[C@H]1[C@H]1CC[C@@H]3[C@@]4(C)CC[C@H](OS(=O)(=O)O)C(C)(C)[C@@H]4CC[C@@]3(C)[C@]1(C)C[C@@H]2OS(=O)(=O)O | 58.8 | 87.8 | 98.9% | 0.56 | 104 | 144
13 | C=C(C=O)[C@@H]1CC[C@@]2(C)[C@H]1[C@H]1CC[C@@H]3[C@@]4(C)CC[C@H](O)C(C)(C)[C@@H]4CC[C@@]3(C)[C@]1(C)C[C@@H]2O | > 200 | 42 | 43.5% | – | – | –
14 | C=C(C)[C@@H]1CC[C@@]2(C)[C@H]1[C@H]1CCC3[C@@]4(C)CC[C@H](O)C(C)(C)[C@@H]4CC[C@@]3(C)[C@]1(C)C[C@@H]2O (some centres not stated) [CALENDULADIOL] | > 200 | – | – | – | > 200 | –
15 | C=C(C)[C@@H]1CC[C@@]2(C)[C@H]1[C@H]1CC[C@@H]3[C@@]4(C)CC[C@H](OC(=O)c5ccccc5)C(C)(C)[C@@H]4CC[C@@]3(C)[C@]1(C)C[C@@H]2OC(=O)c1ccccc1 | – | 39.9 | 3.9% | – | – | –
16 | C=C(C)[C@@H]1CC[C@@]2(C)[C@H]1[C@H]1CC[C@@H]3[C@@]4(C)CC[C@H](OC(C)=O)C(C)(C)[C@@H]4CC[C@@]3(C)[C@]1(C)C[C@@H]2OC(C)=O | – | 35.2 | 3.3% | – | – | –
17 | C=C(C)[C@@H]1CC[C@@]2(C)[C@H]1[C@H]1CC[C@H]3[C@@]4(C)CC[C@H](O)C(C)(C)[C@@H]4CC[C@@]3(C)[C@]1(C)C[C@@H]2O | – | 42 | 8.1% | – | – | –
18 | C=C(C=O)[C@@H]1CC[C@]2(C)C(=O)C[C@]3(C)[C@H](CC[C@@H]4[C@@]5(C)CCC(=O)C(C)(C)[C@@H]5CC[C@]43C)[C@@H]12 | > 200 | 86.5 | 21.7% | > 9.3 | 21.5 | –
19 | C=C(C)[C@@H]1CC[C@@]2(C)[C@H]1[C@H]1CC[C@@H]3[C@@]4(C)CC[C@H](OC(=O)CCCCC(=O)O)C(C)(C)[C@@H]4CC[C@@]3(C)[C@]1(C)C[C@@H]2OC(=O)CCCCC(=O)O | > 200 | 89.2 | 20.2% | > 2.48 | 80.6 | –
20 | C=C(C=O)[C@@H]1CC[C@@]2(C)[C@H]1[C@H]1CC[C@@H]3[C@@]4(C)CC[C@H](OS(=O)(=O)O)C(C)(C)[C@@H]4CC[C@@]3(C)[C@]1(C)C[C@@H]2OS(=O)(=O)O | – | 18.4 | 6.1% | – | – | –
21 | CC1(C)[C@@H](OS(=O)(=O)O)CC[C@]2(C)[C@H]3CC[C@@H]4[C@H]5[C@H]([C@@]6(C)CO6)CC[C@]5(C)[C@@H](OS(=O)(=O)O)C[C@@]4(C)[C@]3(C)CC[C@@H]12 | > 200 | 43.7 | 13.7% | – | > 200 | –
22 | C=C(C)[C@@H]1CC[C@@]2(C)[C@H]1[C@H]1CC[C@@H]3[C@@]4(C)CC[C@H](OC(=O)c5ccc(Br)cc5)C(C)(C)[C@@H]4CC[C@@]3(C)[C@]1(C)C[C@@H]2OC(=O)c1ccc(Br)cc1 | – | 18.4 | inactive | – | – | –
23 | C=C(COC(C)=O)[C@@H]1CC[C@@]2(C)[C@H]1[C@H]1CC[C@@H]3[C@@]4(C)CC[C@H](OC(C)=O)C(C)(C)[C@@H]4CC[C@@]3(C)[C@]1(C)C[C@@H]2OC(C)=O | – | – | 7.2% | – | – | –
